The record followed here is ChEMBL document CHEMBL5241112, “Insights into the recent progress in the medicinal chemistry of pyranopyrimidine analogs” (RSC Med Chem, 2022).

Converted amounts (≈) assume the structure as drawn.

The subject of data set [1] is Pseudomonas aeruginosa. Kind of data set: Antibacterial activity against Pseudomonas aeruginosa ATCC 27853 assessed as inhibition of bacterial growth incubated for 24 hrs by broth macrodilution method. Format: functional.
The subject of data set [2] is Pseudomonas aeruginosa. Kind of data set: Antibacterial activity against Pseudomonas aeruginosa ATCC 27853 assessed as diameter of inhibition zone incubated for 24 hrs by disc diffusion assay. Format: functional. On the technique in general: In agar diffusion tests the substance spreads into inoculated agar from a disc or well.
The test system of data set [3] is Aspergillus niger. The data set can be described thus: Antifungal activity against Aspergillus niger ATCC 6275 assessed as inhibition of […] growth incubated for 7 days by broth macrodilution method. The format is functional. The note with it: ATCC 6275, 168 h, time 7 day.
Data set [4] relates to MCF7. The data set can be described thus: Anticancer activity against human MCF7 cells assessed as reduction in cell viability. Format: functional, cell-based.
In data set [5] the test system is Escherichia coli. The data set can be described thus: Antibacterial activity against Escherichia coli ATCC 25922 assessed as inhibition of bacterial growth incubated for 24 hrs by broth macrodilution method. Format: functional.
The subject of data set [6] is Escherichia coli. The data set can be described thus: Antibacterial activity against Escherichia coli ATCC 25922 assessed as diameter of inhibition zone incubated for 24 hrs by disc diffusion assay. The format is functional.
The subject of data set [7] is HCT-116. The data set can be described thus: cells. The note with it: Homo sapiens.
Data set [8] concerns Aspergillus niger. The data set can be described thus: Antifungal activity against Aspergillus niger ATCC 6275 assessed as diameter of inhibition zone incubated for 7 days by disc diffusion assay. Format: functional. The note with it: time 7 day.
The subject of data set [9] is HepG2. The data set can be described thus: Anticancer activity against human HepG2 cells assessed as reduction in cell viability. Format: functional, cell-based.
Data set [10] deals with Human immunodeficiency virus 2. The data set can be described thus: Antiviral activity against HIV2 ROD infected in human MT4 cells assessed as reduction in virus-induced cytopathic effect by MTT assay. The format is functional, organism-based. The note with it: Human immunodeficiency virus 2, ROD. (In general: Protection from cytopathic effect is a common read-out in antiviral testing.)

Data set [11] is described as follows: Selectivity index, ratio of CC50 for cytotoxicity against human MT4 cells to EC50 for antiviral activity against HIV1 IIIB infected in human MT4 cells. Format: toxicity, cell-based. The note with it: read-out: Selectivity Index.
The test system of data set [12] is Human immunodeficiency virus 1. Kind of data set: Antiviral activity against HIV1 IIIB infected in human MT4 cells assessed as reduction in virus-induced cytopathic effect by MTT assay. The format is functional, organism-based. As to conditions: Human immunodeficiency virus 1, IIIB.
The nature of data set [13]: Cytotoxicity against human MT4 cells assessed as reduction in cell viability by MTT assay. The format is toxicity, cell-based. A general note: Formazan colour is commonly taken as a measure of viable cells.
A short description of data set [14]: Selectivity index, ratio of CC50 for cytotoxicity against human MT4 cells to EC50 for antiviral activity against HIV2 ROD infected in human MT4 cells. Format: toxicity, cell-based. The note with it: read-out: Selectivity Index.
The subject of data set [15] is Staphylococcus aureus. Kind of data set: Antibacterial activity against Staphylococcus aureus MTCC 96 assessed as minimum bactericidal concentration. Format: functional.
For data set [16], the system named is Pseudomonas aeruginosa. Kind of data set: Antibacterial activity against Pseudomonas aeruginosa MTCC 2453 assessed as bacterial growth inhibition. The format is functional.
Data set [17] concerns Staphylococcus aureus. The data set can be described thus: Antibacterial activity against Staphylococcus aureus MLS-16 MTCC 2940 assessed as minimum bactericidal concentration. The format is functional.
The subject of data set [18] is Bacillus subtilis. The data set can be described thus: Antibacterial activity against Bacillus subtilis MTCC 121 assessed as minimum bactericidal concentration. Format: functional.
Data set [19] has as its system Bacillus subtilis. The data set can be described thus: Antibacterial activity against Bacillus subtilis MTCC 121 assessed as bacterial growth inhibition. Format: functional.
Data set [20] relates to Raoultella planticola. The data set can be described thus: Antibacterial activity against Raoultella planticola MTCC 530 assessed as bacterial growth inhibition. The format is functional. As to conditions: Klebsiella planticola.
Data set [21] concerns Staphylococcus aureus. The data set can be described thus: Antibacterial activity against Staphylococcus aureus MLS-16 MTCC 2940 assessed as bacterial growth inhibition. The format is functional.
Data set [22] deals with Escherichia coli. The data set can be described thus: Antibacterial activity against Escherichia coli MTCC 739 assessed as bacterial growth inhibition. Format: functional.
Data set [23] has as its system Micrococcus luteus. The data set can be described thus: Antibacterial activity against Micrococcus luteus MTCC 2470 assessed as bacterial growth inhibition. Format: functional.
Data set [24] concerns Staphylococcus aureus. Kind of data set: Antibacterial activity against Staphylococcus aureus ATCC6538-P assessed as diameter of inhibition zone at 50 mg/ml incubated for 24 hrs by paper disk diffusion method. The format is functional. The note with it: read-out: DIZ.
Data set [25] has as its system Aspergillus fumigatus. Kind of data set: microbe, parasite or virus in culture. Format: functional. As to conditions: ATCC204305, dose 50 mg/ml, time 24 hrs, read-out: DIZ.
The subject of data set [26] is Klebsiella pneumoniae. The data set can be described thus: Antibacterial activity against Klebsiella pneumoniae MGH 78578 assessed as diameter of inhibition zone at 50 mg/ml incubated for 24 hrs by paper disk diffusion method. Format: functional. The note with it: read-out: DIZ.
In data set [27] the test system is Streptococcus pneumoniae. Kind of data set: Antibacterial activity against Streptococcus pneumoniae ATCC BAA-255/R6 assessed as diameter of inhibition zone at 50 mg/ml incubated for 24 hrs by paper disk diffusion method. As to conditions: read-out: DIZ. The format is functional.
For data set [28], the target named is Alpha-glucosidase (Saccharomyces cerevisiae S288c, UniProt P53341+P38158+P07265). The data set can be described thus: Inhibition of Saccharomyces cerevisiae alpha-glucosidase assessed as decrease in release of p-nitrophenol using pNPG as substrate incubated for 10 mins by spectroscopic analysis. The format is protein assay.
Data set [29] concerns the target Alpha-glucosidase (Mus musculus). The data set can be described thus: Inhibition of mouse alpha-glucosidase assessed as decrease in release of p-nitrophenol using pNPG as substrate preincubated for 10 mins followed by substrate addition and measured after 30 mins by spectroscopic analysis.
The subject of data set [30] is Enterobacter cloacae. The data set can be described thus: Antibacterial activity against Enterobacter cloacae assessed as inhibition of bacterial growth by microdilution method. Format: functional.
Data set [31] deals with Bacillus pumilus. The data set can be described thus: Antibacterial activity against Bacillus pumilus assessed as inhibition of bacterial growth at MIC by microdilution method. The format is functional.
Data set [32] concerns Candida albicans. Kind of data set: Antifungal activity against Candida albicans assessed as inhibition of fungal growth at MIC by microdilution method. Format: functional.
The test system of data set [33] is Enterococcus faecalis. Kind of data set: Antibacterial activity against […] assessed as inhibition of bacterial growth at MIC by microdilution method. Format: functional.
The subject of data set [34] is Enterococcus faecalis. The data set can be described thus: Antibacterial activity against […] assessed as inhibition of bacterial growth by microdilution method. The format is functional.
The subject of data set [35] is Enterobacter cloacae. Kind of data set: Antibacterial activity against Enterobacter cloacae assessed as minimum bactericidal concentration by microdilution method. Format: functional.
Data set [36] concerns Bacillus pumilus. The data set can be described thus: Antibacterial activity against Bacillus pumilus assessed as inhibition of bacterial growth by microdilution method. Format: functional.
Data set [37] relates to Enterococcus faecalis. Kind of data set: Antibacterial activity against […] assessed as minimum bactericidal concentration by microdilution method. The format is functional.
The subject of data set [38] is Candida albicans. The data set can be described thus: Antifungal activity against Candida albicans assessed as inhibition of fungal growth by microdilution method. The format is functional.
The test system of data set [39] is Aspergillus niger. The data set can be described thus: Antifungal activity against Aspergillus niger assessed as inhibition of fungal growth by microdilution method. The format is functional.
Data set [40] relates to Candida albicans. The data set can be described thus: […] activity against Candida albicans assessed as […] by microdilution method. The format is functional.
For data set [41], the system named is Enterobacter cloacae. The data set can be described thus: Antibacterial activity against Enterobacter cloacae assessed as inhibition of bacterial growth at MIC by microdilution method. The format is functional.
The subject of data set [42] is Aspergillus niger. The data set can be described thus: Antifungal activity against Aspergillus niger assessed as inhibition of fungal growth at MIC by microdilution method. The format is functional.
Data set [43] relates to Aspergillus niger. The data set can be described thus: […] activity against Aspergillus niger assessed as […] by microdilution method. Format: functional.
For data set [44], the system named is Escherichia coli. The data set can be described thus: Antibacterial activity against Escherichia coli assessed as inhibition of bacterial growth by microdilution method. Format: functional.
The test system of data set [45] is Bacillus pumilus. The data set can be described thus: Antibacterial activity against Bacillus pumilus assessed as minimum bactericidal concentration by microdilution method. The format is functional.

Turning to `COc1ccc(C2c3c([nH]c(=O)[nH]c3=O)Oc3ncn(-c4cc(C)ccn4)c(=N)c32)cc1` (stereo not given), the values for the MIC in data set [1], in [3] and in [5] were 3.12 µg/mL (≈ 7.26 µM), 15.4 µg/mL (≈ 35.7 µM) and 0.781 µg/mL (≈ 1.81 µM), respectively. The “diameter of the inhibition zone (DIZ)” value in data set [2] turned out to be 17.3 mm; in data set [6] it was 18.1 mm; in data set [8], 17.2 mm. Further, the figures for the IC50 in data set [4], in [7] and in data set [9] were 2.43 µM, 2.61 µM and 2.09 µM, respectively.

Consider `Cc1nc2c(c(=O)[nH]1)C(c1cccc3ccccc13)c1c(c3ccccc3oc1=O)O2` (stereo not given), for which the EC50 in data set [10] and in [12] was 3.63 µg/mL (≈ 8.89 µM) in each case. For the same molecule, the selectivity ratio in data set [11] and in [14] was < 1 in each case. Moreover, the CC50 – broadly, the concentration at which the toxic effect on the cells reaches its halfway point – in data set [13] amounted to 3.63 µg/mL (≈ 8.89 µM).

As for `Cc1ccc(C2c3c(Nc4cccc([N+](=O)[O-])c4)ncnc3Oc3c2c(=O)oc2ccccc32)cc1` (stereo not given), the MBC in data set [15], in [17] and in [18] was 15.6 µg/mL (≈ 32.6 µM) throughout. The MIC (in general, the lowest concentration that inhibits growth of the organism) in data set [16] came out at 15.6 µg/mL (≈ 32.6 µM); in [19] it was 31.2 µg/mL (≈ 65.2 µM); in data set [20], 15.6 µg/mL (≈ 32.6 µM); in data set [21] it was 15.6 µg/mL (≈ 32.6 µM); in data set [22], 15.6 µg/mL (≈ 32.6 µM); in data set [23], 15.6 µg/mL (≈ 32.6 µM).

Regarding `N=c1c2c(ncn1N)Oc1c(c(=O)oc3ccccc13)C2c1cccc2ccccc12` (stereo not given), the EC50 in [10] and in [12] was 4.84 µg/mL (≈ 11.9 µM) each time. Also, the selectivity ratio in data set [11] and in data set [14] was < 1 in each case. Moreover, in data set [13], the CC50 was found to be 4.84 µg/mL (≈ 11.9 µM).

Turning to `Cc1nc2c(c(=O)[nH]1)C(c1ccc(Cl)cc1)C=C(c1cc3ccccc3oc1=O)O2` (stereo not given), the zone of inhibition at 50000 µg/mL in data set [24] came to 10 mm; in [25] it was 10 mm; in data set [26], 20 mm; in data set [27], 14 mm.

`COc1cc(/C=C/C(=O)C2=C(/C=C/c3ccc(O)c(OC)c3)Oc3[nH]c(=O)[nH]c(=O)c3C2c2ccc([N+](=O)[O-])cc2)ccc1O` (stereo not given): the IC50 (as a rule, the point on the concentration scale where inhibition reaches its midpoint) is 12.41 µM in data set [28] and 106.8 µM in data set [29].

Regarding `CCOC(=O)C1=C(N)OC2C(C(=O)N(c3ccc(C)cc3)C(=S)N2c2ccc(C)cc2)C1c1ccccc1` (stereo not given), the MIC worked out at 62.5 µg/mL (≈ 118 µM) in data set [30]; 15.6 µg/mL (≈ 29.6 µM) in data set [34]; 31.2 µg/mL (≈ 59.1 µM) in [36]; 31.2 µg/mL in data set [38]; 15.6 µg/mL in data set [39]; 15.6 µg/mL (≈ 29.6 µM) in data set [44]. Besides, the “inhibition (INH)” value worked out at 66.4% in data set [31]; 79.7% in data set [32]; 69.5% in [33]; 29.2% in data set [41]; 85.1% in data set [42]. Also, the MBC was found to be 62.5 µg/mL (≈ 118 µM) in data set [35]; 62.5 µg/mL (≈ 118 µM) in [37]; 62.5 µg/mL (≈ 118 µM) in [40]; 500 µg/mL (≈ 948 µM) in [43]; 125 µg/mL (≈ 237 µM) in [45].
